The results in this text go back to patent publication US11072632B2, “Inhibitors of 17β-HSD1, 17β-HSD3 and 17β-HSD10” (UNIVERSITÉ LAVAL, priority 2011, dated 2021).

Assay [1] concerns the target T1, 17β-HSD3 (Homo sapiens, UniProt P37058).
T1 construct: expressed in transfected cells; host or cells: HEK-293 (homogenate)
T1 sequence (P37058 1-310): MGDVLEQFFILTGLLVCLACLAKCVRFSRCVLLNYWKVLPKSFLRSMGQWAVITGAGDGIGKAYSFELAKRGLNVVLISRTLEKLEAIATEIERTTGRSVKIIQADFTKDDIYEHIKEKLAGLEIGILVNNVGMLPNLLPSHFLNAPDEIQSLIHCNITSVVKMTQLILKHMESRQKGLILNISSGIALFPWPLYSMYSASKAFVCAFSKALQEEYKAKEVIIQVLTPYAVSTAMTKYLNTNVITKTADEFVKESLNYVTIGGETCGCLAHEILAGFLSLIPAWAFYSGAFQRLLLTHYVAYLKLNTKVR
Nature of the assay: Inhibition of 17β-HSD3 in homogenated HEK-293 cells. It counts as biochemical. To be noted: for inhibition at 1 µM: read-out: Homo (%) (1.0 μM), Table 4.

The target of assay [2] is T1, 17β-HSD3. Nature of the assay: Inhibition of 17β-HSD3 in intact HEK-293 cells. Type of assay: cell-based. To be noted: 0.1 μM; for inhibition at 0.1 µM: HEK293, 1 h.
Setting [3] is: Table 3, read-out: Homo (%) (0.01 μM).
Where [4] appears, read: Table 3, read-out: Homo (%) (0.1 μM).
[5] abbreviates: Table 3, read-out: Intact cells (%) (0.1 μM).
Setting [6] is: read-out: Homo (%) (0.01 μM), Table 4.
Where [7] appears, read: read-out: Homo (%) (0.1 μM), Table 4.
The mark [8] stands for this setting: read-out: Intact cells (%) (0.1 μM), Table 4.

Like-named read-outs stand apart in the source and are kept apart here.

Consider `C[C@]12CC[C@](O)(CN3CCN(C(=O)c4cccc(C(F)(F)F)c4)CC3)C[C@@H]1CC[C@@H]1[C@@H]2CC[C@]2(C)C(=O)CC[C@@H]12` [Compound 12d, (3α,5α)-3-hydroxy-3-[(4-{[3-(trifluoromethyl)phenyl]carbonyl}piperazin-1-yl)methyl]androstan-17-one], for which the inhibition at 0.01 µM on 17β-HSD3 [1] (setting [3]) came out at 10%. For the same compound, the inhibition at 0.1 µM at 17β-HSD3 [1] (setting [4]) came to 92%; at 17β-HSD3 [2] (setting [5]) it was 91%.
The matching figures for `C[C@]12CC[C@](O)(CN3CCN(C(=O)c4ccc(C(F)(F)F)cc4)CC3)C[C@@H]1CC[C@@H]1[C@@H]2CC[C@]2(C)C(=O)CC[C@@H]12` [Compound 12e, (3α,5α)-3-hydroxy-3-[(4-{[4-(trifluoromethyl)phenyl]carbonyl}piperazin-1-yl)methyl]androstan-17-one]: 22%, 84% and 56%.
As to `CC1CN(C(=O)c2ccccc2)C(C)CN1C[C@@]1(O)CC[C@@]2(C)[C@@H](CC[C@@H]3[C@@H]2CC[C@]2(C)C(=O)CC[C@@H]32)C1` (stereo partly drawn) [Compound 13a, (3α,5α)-3-{[(2ξ,5ξ)-2,5-dimethyl-4-(phenylcarbonyl)piperazin-1-yl]methyl}-3-hydroxyandrostan-17-one], at 17β-HSD3 [1] (Table 3), the “Homo (%) (0.01 μM)” value is given as 24% and the “Homo (%) (0.1 μM)” value is 87%. Further, the “Intact cells (%) (0.1 μM)” value at 17β-HSD3 [2] (Table 3) is 78%.
The matching figures for `CC1CN(C(=O)C2CCCCC2)C(C)CN1C[C@@]1(O)CC[C@@]2(C)[C@@H](CC[C@@H]3[C@@H]2CC[C@]2(C)C(=O)CC[C@@H]32)C1` (stereo partly drawn) [Compound 13b, (3α,5α)-3-{[(2ξ,5ξ)-4-(cyclohexylcarbonyl)-2,5-dimethylpiperazin-1-yl]methyl}-3-hydroxyandrostan-17-one]: 24%, 90% and 77%.
The matching figures for `CC1CN(C(=O)c2cccc(C(F)(F)F)c2)C(C)CN1CC1(O)CCC2(C)C(CCC3C4CCC(=O)C4(C)CCC32)C1` (stereo not drawn) [Compound 13c, (3α,5α)-3-{[(2ξ,5ξ)-2,5-dimethyl-4-{[3-(trifluoromethyl)phenyl]carbonyl}piperazin-1-yl]methyl}-3-hydroxyandrostan-17-one]: 28%, 89% and 70%.
Regarding `Cc1ccc(CN2C[C@]3(CC[C@@]4(C)[C@@H](CC[C@@H]5[C@@H]4CC[C@]4(C)C(=O)CC[C@@H]54)C3)OC2=O)cc1` [Compound 17b, (3R,5S,8R,9S,10S,13S,14S)-10,13-dimethyl-3′-(4-methylbenzyl)tetrahydrodecahydro-2′H-spiro[cyclopenta[α]phenanthrene-3,5′-[1,3]oxazolidine]-2′,17(2H)-dione], at 17β-HSD3 [1] (setting [6]), the inhibition at 0.01 µM is 17%. Moreover, the values for the inhibition at 0.1 µM on 17β-HSD3 [1] (setting [7]) and at 17β-HSD3 [2] (setting [8]) were 81% and 38%, respectively. Besides, the inhibition at 1 µM on 17β-HSD3 [1] came out at 93%.
On to `COc1ccc(CN2C[C@]3(CC[C@@]4(C)[C@@H](CC[C@@H]5[C@@H]4CC[C@]4(C)C(=O)CC[C@@H]54)C3)OC2=O)cc1` [Compound 17c, (3R,5S,8R,9S,10S,13S,14S)-3′-(4-methoxybenzyl)-10,13-dimethyltetradecahydro-2′H-spiro[cyclopenta[α]phenanthrene-3,5′-[1,3]oxazolidine]-2′,17(2H)-dione], for which, at 17β-HSD3 [1] (setting [6]), the inhibition at 0.01 µM turned out to be 5%. For the same compound, the results for the inhibition at 0.1 µM on 17β-HSD3 [1] (setting [7]) and on 17β-HSD3 [2] (setting [8]) were 84% and 43%, respectively. The inhibition at 1 µM at 17β-HSD3 [1] was 93%.
As to `C[C@]12CC[C@@]3(C[C@@H]1CC[C@@H]1[C@@H]2CC[C@]2(C)C(=O)CC[C@@H]12)CN(Cc1ccc(C(F)(F)F)cc1)C(=O)O3` [Compound 17d, (3R,5S,8R,9S,10S,13S,14S)-10,13-dimethyl-3′-[4-(trifluoromethyl)benzyl]tetradecahydro-2′H-spiro[cyclopenta[α]phenanthrene-3,5′-[1,3]oxazolidine]-2′,17(2H)-dione], the inhibition at 0.01 µM at 17β-HSD3 [1] (setting [6]) amounted to 25%. Further, the values for the inhibition at 0.1 µM at 17β-HSD3 [1] (setting [7]) and on 17β-HSD3 [2] (setting [8]) were 80% and 43%, respectively.
As for `C[C@]12CC[C@@]3(C[C@@H]1CC[C@@H]1[C@@H]2CC[C@]2(C)C(=O)CC[C@@H]12)CN(Cc1ccc(C(F)(F)F)nc1)C(=O)O3` [Compound 17e], the inhibition at 0.01 µM at 17β-HSD3 [1] (setting [6]) was 3%. For the same compound, the inhibition at 0.1 µM came out at 65% at 17β-HSD3 [1] (setting [7]) and 36% on 17β-HSD3 [2] (setting [8]).
The matching figures for `C[C@]12CC[C@@]3(C[C@@H]1CC[C@@H]1[C@@H]2CC[C@]2(C)C(=O)CC[C@@H]12)CN(Cc1ccccc1C(F)(F)F)C(=O)O3` [Compound 17f, (3R,5S,8R,9S,10S,13S,14S)-10,13-dimethyl-3′-[2-(trifluoromethyl)benzyl]tetradecahydro-2′H-spiro[cyclopenta[α]phenanthrene-3,5′-[1,3]oxazolidine]-2′,17(2H)-dione]: 17%, 81% and 35%.
As to `C[C@]12CC[C@@]3(C[C@@H]1CC[C@@H]1[C@@H]2CC[C@]2(C)C(=O)CC[C@@H]12)CN(Cc1cccc(C(F)(F)F)c1)C(=O)O3` [Compound 17g, (3R,5S,8R,9S,10S,13S,14S)-10,13-dimethyl-3′-[3-(trifluoromethyl)benzyl]tetradecahydro-2′H-spiro[cyclopenta[α]phenanthrene-3,5′-[1,3]oxazolidine]-2′,17(2H)-dione], the inhibition at 0.01 µM at 17β-HSD3 [1] (setting [6]) is 16%. The values for the inhibition at 0.1 µM on 17β-HSD3 [1] (setting [7]) and on 17β-HSD3 [2] (setting [8]) were 80% and 36%, respectively.
The corresponding values for `C[C@]12CC[C@@]3(C[C@@H]1CC[C@@H]1[C@@H]2CC[C@]2(C)C(=O)CC[C@@H]12)CN(Cc1cc(C(F)(F)F)cc(C(F)(F)F)c1)C(=O)O3` [Compound 17h, (3R,5S,8R,9S,10S,13S,14)-3′-[3,5-bis(trifluoromethyl)benzyl]-10,13-dimethyletradecahydro-2′H-spiro[cyclopenta[α]phenanthrene-3,5′-[1,3]oxazolidine]-2′,17(2H)-dione] are 12%, 66% and 35%.
Consider `C[C@]12CC[C@@]3(C[C@@H]1CC[C@@H]1[C@@H]2CC[C@]2(C)C(=O)CC[C@@H]12)CN(C1CCCCC1)C(=O)O3` [Compound 17i, (3R,5S,8R,9S,10S,13S,14S)-3′-cyclohexyl-10,13-dimethyltetradecahydro-2′H-spiro[cyclopenta[α]phenanthrene-3,5′-[1,3]oxazolidine]-2′,17(2H)-dione], for which, at 17β-HSD3 [1] (setting [6]), the inhibition at 0.01 µM came to 13%. Further, the inhibition at 0.1 µM on 17β-HSD3 [1] (setting [7]) worked out at 75%; on 17β-HSD3 [2] (setting [8]), 29%. Also, at 17β-HSD3 [1], the inhibition at 1 µM is 78%.
The matching figures for `Cc1ccc(CN2C[C@]3(CC[C@@]4(C)[C@@H](CC[C@@H]5[C@@H]4CC[C@]4(C)C(=O)C(C)(C)C[C@@H]54)C3)OC2=O)cc1` [Compound 18, (3R,5S,8R,9S,10S,13S,14S)-10,13,16,16-tetramethyl-3′-(4-methylbenzyl)tetrahydrodecahydro-2′H-spiro[cyclopenta[α]phenanthrene-3,5′-[1,3]oxazolidine]-2′,17(2H)-dione]: 2%, 22%, 18% and 74%.
